Data: ChEMBL document CHEMBL3879893, “Nuclear transport modulators and uses thereof” (2011)
Activity calls are given as the source filed them. The calls are words filed in the database; no cut-off is given here.

Tests used:
Exportin-1 [1] = biological target: T1, Exportin-1 (Homo sapiens, UniProt O14980); assay: Inhibition of Crm1 in human U2OS cells expressing GFP-fused HIV1 Rev assessed as decrease in nuclear export of GFP-fused HIV1 Rev after 1 hr by Hoechst 33258 staining-based assay; type: cell-based
T1 sequence (O14980 whole entry, the tested form may be a part): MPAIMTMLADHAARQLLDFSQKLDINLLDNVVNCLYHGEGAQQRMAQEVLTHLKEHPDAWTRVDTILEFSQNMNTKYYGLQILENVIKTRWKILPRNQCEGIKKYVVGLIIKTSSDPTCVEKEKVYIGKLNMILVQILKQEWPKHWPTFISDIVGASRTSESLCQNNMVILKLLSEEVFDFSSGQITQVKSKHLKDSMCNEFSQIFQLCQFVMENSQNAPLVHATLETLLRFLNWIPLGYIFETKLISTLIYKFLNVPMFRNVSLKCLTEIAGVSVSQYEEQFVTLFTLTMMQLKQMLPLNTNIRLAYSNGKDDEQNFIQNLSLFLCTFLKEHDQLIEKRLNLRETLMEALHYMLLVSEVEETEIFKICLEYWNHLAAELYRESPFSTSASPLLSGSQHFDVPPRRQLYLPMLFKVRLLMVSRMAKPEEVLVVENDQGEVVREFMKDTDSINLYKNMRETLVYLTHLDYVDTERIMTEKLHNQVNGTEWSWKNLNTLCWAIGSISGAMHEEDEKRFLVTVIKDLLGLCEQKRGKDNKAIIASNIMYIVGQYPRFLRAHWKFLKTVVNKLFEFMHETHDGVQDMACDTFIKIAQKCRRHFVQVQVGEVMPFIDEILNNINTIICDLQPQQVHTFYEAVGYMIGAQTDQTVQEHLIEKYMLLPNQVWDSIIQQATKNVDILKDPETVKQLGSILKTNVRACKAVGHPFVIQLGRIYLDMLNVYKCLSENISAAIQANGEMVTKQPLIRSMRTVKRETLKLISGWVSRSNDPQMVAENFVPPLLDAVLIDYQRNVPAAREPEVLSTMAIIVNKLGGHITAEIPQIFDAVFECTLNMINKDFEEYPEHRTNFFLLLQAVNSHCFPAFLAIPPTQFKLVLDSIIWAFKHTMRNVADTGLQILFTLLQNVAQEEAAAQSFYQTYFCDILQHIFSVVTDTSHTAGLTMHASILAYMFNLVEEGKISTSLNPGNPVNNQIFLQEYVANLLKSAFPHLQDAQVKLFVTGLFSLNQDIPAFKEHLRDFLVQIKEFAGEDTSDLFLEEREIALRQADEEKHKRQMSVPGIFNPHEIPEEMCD

Exportin-1 [2] = biological target: T1, Exportin-1; assay: Inhibition of Crm1 in human H929 cells assessed as decrease in nuclear export of topoisomerase-2 by measuring caspase-3 levels at 0.1 to 10 uM preincubated for 16 hrs followed by addition of topoisomerase-2 inhibitor doxorubicin measured after 4 hrs by anti-caspase-3 assay; type: cell-based
[3] = Antitumor activity against 350 mm'3 human HCT116 cells xenografted in mouse assessed as tumor growth inhibition at 30 mg/kg, iv qd administered for 2 days measured after day 24 relative to control; type: functional; details: HCT-116, iv, read-out: TGI

| IC50 (Exportin-1 [1]) [nM] | SMILES | also measured |
| --- | --- | --- |
| ≤ 1000 | CC(C)OC(=O)/C=C\n1cnc(-c2cc(OCCN3CCCC3)cc(C(F)(F)F)c2)n1 | – |
| 1000 to 10000 | CC(C)OC(=O)/C=C/Cn1cnc(-c2cccc(Cl)c2)n1 | – |
| 1000 to 10000 | CC(C)OC(=O)/C=C\n1cnc(-c2cc(Cl)cc(Oc3ccc(Cl)cc3)c2)n1 | – |
| ≤ 1000 | O=C(/C=C\n1cnc(-c2cccc(Cl)c2)n1)OC1COC1 | – |
| 1000 to 10000 | FC(F)(F)/C=C\n1cnc(-c2cccc(Cl)c2)n1 | – |
| ≤ 1000 | CC(C)OC(=O)/C=C\n1cnc(-c2cccc(C(F)(F)F)c2)n1 | – |
| 1000 to 10000 | CCOC(=O)/C=C\n1cnc(-c2cc(F)cc(F)c2)n1 | – |
| 1000 to 10000 | CC(C)OC(=O)/C=C\c1n[nH]c(-c2cc(Cl)cc(Cl)c2)n1 | – |
| ≥ 10000 | CCOC(=O)/C=C/n1cnc(-c2cccc(Cl)c2)n1 | – |
| ≥ 10000 | Nc1ccc(NC(=O)/C=C/n2cnc(-c3cccc(Cl)c3)n2)cc1 | – |
| 1000 to 10000 | CC(C)OC(=O)/C=C\c1nnc(-c2cccc(F)c2)[nH]1 | – |
| ≤ 1000 | CC(C)OC(=O)/C=C\n1cnc(-c2cc(Cl)ccc2N)n1 | – |
| ≤ 1000 | CC(C)OC(=O)/C=C\n1cnc(-c2cccc(Cl)c2)n1 | inhibition (Exportin-1 [2]): Active |
| ≤ 1000 | COc1cc(-c2ncn(/C=C\C(=O)OC3CNC3)n2)cc(C(F)(F)F)c1 | – |
| ≤ 1000 | CC(C)OC(=O)/C=C\n1cnc(-c2ccc(Cl)c(Cl)c2)n1 | – |
| ≤ 1000 | CCOC(=O)/C=C\n1cnc(-c2cccc(Cl)c2)n1 | – |
| ≤ 1000 | CC(C)OC(=O)/C=C\n1cnc(-c2cncc(Cl)c2)n1 | – |
| ≥ 10000 | CC(C)OC(=O)/C=C/n1cnc(-c2cc(OCCN3CCCC3)cc(C(F)(F)F)c2)n1 | – |
| ≤ 1000 | O=C(/C=C\n1cnc(-c2cccc(Cl)c2)n1)OC1CCC1 | – |
| ≥ 10000 | CC(C)(C)OC(=O)/C=C/n1cnc(-c2cccc(Cl)c2)n1 | – |
| ≤ 1000 | CC(C)Nc1cc(-c2ncn(/C=C\C(=O)OC(C)C)n2)cc(C(F)(F)F)n1 | – |
| ≤ 1000 | COc1cc(Cl)cc(-c2ncn(/C=C\C(=O)OC(C)C)n2)c1 | – |
| ≤ 1000 | Cc1cccc(-c2ncn(/C=C\C(=O)OC(C)C)n2)c1 | – |
| ≥ 10000 | O=C(/C=C\n1cnc(-c2cccc(Cl)c2)n1)NC1CCCC1 | – |

| IC50 (Exportin-1 [1]) [nM] | SMILES | also measured |
| --- | --- | --- |
| 1000 to 10000 | CC(C)OC(=O)/C=C\Cn1cnc(-c2cccc(Cl)c2)n1 | – |
| ≥ 10000 | CN(C(=O)/C=C\c1nnc(-c2cccc(Cl)c2)[nH]1)c1ccccc1 | – |
| 1000 to 10000 | CC(C)OC(=O)/C=C\n1cnc(-c2cc(O/C=C/C(=O)OC(C)C)cc(C(F)(F)F)c2)n1 | – |
| 1000 to 10000 | O=C(/C=C\n1cnc(-c2cccc(Cl)c2)n1)OC1COC(=O)C1 (stereo unspecified) | – |
| ≤ 1000 | O=C(/C=C\n1cnc(-c2cccc(Cl)c2)n1)OCc1ccccn1 | – |
| ≥ 10000 | COc1ccc(NC(=O)/C=C/n2cnc(-c3cccc(Cl)c3)n2)cc1 | – |
| ≤ 1000 | CC(C)OC(=O)/C=C\n1cnc(-c2cc(Cl)cc(OC(F)(F)F)c2)n1 | – |
| ≥ 10000 | O=C(/C=C\c1nnc(-c2cccc(Cl)c2)[nH]1)Nc1ccccc1 | – |
| ≥ 10000 | CC(C)OC(=O)/C=C/n1cnc(-c2cccc(Cl)c2)n1 | – |
| – | CCc1c2c(nc3ccc(OC(=O)N4CCC(N5CCCCC5)CC4)cc13)-c1cc3c(c(=O)n1C2)COC(=O)[C@]3(O)CC [IRINOTECAN] | inhibition in vivo at 30 mg/kg [3]: 78% |
| 1000 to 10000 | CC(C)OC(=O)/C=C/n1cnc(-c2cc(OCCN(C)C)cc(C(F)(F)F)c2)n1 | – |
| ≥ 10000 | CC(C)(C)OC(=O)Nc1ccc(NC(=O)/C=C/n2cnc(-c3cccc(Cl)c3)n2)cc1 | – |
| ≤ 1000 | CC(C)OC(=O)/C=C\n1cnc(-c2cc(OC(C)C)nc(C(F)(F)F)c2)n1 | – |
| 1000 to 10000 | CC(C)OC(=O)/C=C\n1cnc(-c2ccc(Oc3ccc(Cl)cc3)cc2)n1 | – |
| ≤ 1000 | COc1cc(-c2ncn(/C=C\C(=O)OC(C)C)n2)cc(Cl)n1 | – |
| ≤ 1000 | O=C(/C=C\n1cnc(-c2cccc(Cl)c2)n1)OC1CCOC1 (stereo unspecified) | – |
| ≤ 1000 | O=C(/C=C\n1cnc(-c2cccc(Cl)c2)n1)OC1CNC1 | – |
| ≤ 1000 | CC(C)OC(=O)/C=C\n1cnc(-c2cc(Cl)nc(Cl)c2)n1 | – |
| 1000 to 10000 | O=C(/C=C/n1cnc(-c2cccc(Cl)c2)n1)OC1CNC1 | – |
| 1000 to 10000 | CC(C)(C)OC(=O)/C=C\n1cnc(-c2cccc(Cl)c2)n1 | – |
| ≤ 1000 | O=C(/C=C\n1cnc(-c2cccc(Cl)c2)n1)OC1CCCCC1 | – |
| ≤ 1000 | COCCOc1cc(Cl)cc(-c2ncn(/C=C\C(=O)OC(C)C)n2)c1 | – |
| ≤ 1000 | CC(C)OC(=O)/C=C\n1cnc(-c2cc(C#N)cc(OC(C)C)c2)n1 | – |
| 1000 to 10000 | O=C(/C=C\n1cnc(-c2cccc(Cl)c2)n1)OCC1CCCN1 (stereo unspecified) | – |

| IC50 (Exportin-1 [1]) [nM] | SMILES | also measured |
| --- | --- | --- |
| ≤ 1000 | CC(C)OC(=O)/C=C\n1cnc(-c2cc(OC(C)C)cc(C(F)(F)F)c2)n1 | – |
| 1000 to 10000 | CC(C)OC(=O)/C=C\n1cnc(-c2csc(Cl)n2)n1 | – |
| ≤ 1000 | O=C(/C=C\n1cnc(-c2cccc(Cl)c2)n1)OC1CCOCC1 | – |
| ≤ 1000 | O=C(/C=C\n1cnc(-c2cccc(Cl)c2)n1)N1CCC1 | – |
| ≥ 10000 | CC(C)OC(=O)/C=C\n1cnc(-c2ccc(-c3ccccc3)c(F)c2)n1 | – |
| ≤ 1000 | O=C(/C=C\n1cnc(-c2cc(Cl)nc(Cl)c2)n1)OC1CNC1 | – |
| ≤ 1000 | CC(C)Oc1cc(-c2ncn(/C=C\C(=O)OCc3ccccn3)n2)cc(C(F)(F)F)c1 | – |
| ≤ 1000 | COC(=O)/C=C\n1cnc(-c2cc(Cl)cc(OC)c2)n1 | – |
| ≥ 10000 | O=C(/C=C/n1cnc(-c2cccc(Cl)c2)n1)Nc1cccc(Cl)c1 | – |
| ≤ 1000 | CC(C)OC(=O)/C=C\n1cnc(-c2cc(OCCN(C)C)cc(C(F)(F)F)c2)n1 | – |
| ≤ 1000 | CC(C)Nc1cc(-c2ncn(/C=C\C(=O)OC(C)C)n2)cc(Cl)n1 | – |
| ≤ 1000 | CC(C)OC(=O)/C=C\n1cnc(-c2cc(Cl)cc(OC(C)C)c2)n1 | – |
| ≤ 1000 | COc1cc(OC)cc(-c2ncn(/C=C\C(=O)OC(C)C)n2)c1 | – |
| ≤ 1000 | COc1ccc(Cl)cc1-c1ncn(/C=C\C(=O)OC(C)C)n1 | – |
| ≤ 1000 | O=C(/C=C\n1cnc(-c2cccc(Cl)c2)n1)OC1CCCC1 | – |
| 1000 to 10000 | COc1ccc(-c2ncn(/C=C\C(=O)OC(C)C)n2)cc1Cl | – |
| ≤ 1000 | CC(C)OC(=O)/C=C\n1cnc(-c2cc(Cl)nc(OC(C)C)c2)n1 | – |
| ≤ 1000 | CC(C)Oc1cc(-c2ncn(/C=C\C(=O)OCc3ccccn3)n2)cc(C(F)(F)F)n1 | – |
| 1000 to 10000 | CC(C)OC(=O)/C=C\n1cnc(-c2csc(Br)n2)n1 | – |
| 1000 to 10000 | C[S+]([O-])/C=C\n1cnc(-c2cccc(Cl)c2)n1 (stereo unspecified) | – |
| ≤ 1000 | CC(C)OC(=O)/C=C\n1cnc(-c2cc(NC3CCC3)nc(C(F)(F)F)c2)n1 | – |
| ≤ 1000 | CC(C)OC(=O)/C=C\c1n[nH]c(-c2cccc(Cl)c2)n1 | – |
| ≤ 1000 | CCOC(=O)/C=C\n1cnc(-c2cc(Cl)cc(OC)c2)n1 | – |
| ≤ 1000 | CNc1cc(Cl)cc(-c2ncn(/C=C\C(=O)OC(C)C)n2)c1 | – |

| SMILES | IC50 (Exportin-1 [1]) [nM] | also measured |
| --- | --- | --- |
| CC(C)OC(=O)/C=C\n1cnc(-c2csc(Cl)c2)n1 | ≤ 1000 | – |
| CS(=O)(=O)/C=C\n1cnc(-c2cccc(Cl)c2)n1 | ≤ 1000 | – |
| CCOC(=O)/C=C\n1cnc(-c2cc(Cl)cc(Cl)c2)n1 | ≤ 1000 | – |
| N#C/C=C/n1cnc(-c2cccc(Cl)c2)n1 | 1000 to 10000 | – |
| N#C/C=C\n1cnc(-c2cccc(Cl)c2)n1 | ≤ 1000 | – |
| COc1cc(-c2ncn(/C=C\C(=O)OC(C)C)n2)cc(C(F)(F)F)c1 | ≤ 1000 | – |
| CC(C)Oc1cc(-c2ncn(/C=C\C#N)n2)cc(C(F)(F)F)c1 | ≤ 1000 | – |
| O=C(/C=C\n1cnc(-c2cccc(Cl)c2)n1)OCc1cnc[nH]1 | 1000 to 10000 | – |
